Assay results: ChEMBL document CHEMBL1201862, “PubChem BioAssay data set” (2004)
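Five compound concentrations were applied to cells in 96-well plates for 48 hours; endpoints were derived by simple linear interpolation of the resulting dose-response curve. The concentration for 50% growth inhibition is given as GI50.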 Calls of active or inactive are those of the source. Cut-off read from the data, not from the text of the source: active = GI50 up to about 1.1 µM and inactive = higher.

Tests used:
Assay in all cases: DTP human tumour cell line panel, 48 h
DLD-1 = test system: DLD-1
RXF 631 = test system: RXF 631
SNB-78 = test system: SNB-78
LXFL 529 = test system: LXFL 529
XF498 = test system: XF498
HOP-18 = test system: HOP-18
DMS-273 = test system: DMS-273
BT-549 = test system: BT-549
T47D = test system: T47D

Row | SMILES | GI50 (DLD-1) | GI50 (RXF 631) | GI50 (SNB-78) | GI50 (LXFL 529) | GI50 (XF498) | GI50 (HOP-18) | GI50 (DMS-273) | GI50 (BT-549) | GI50 (T47D)
1 | CCN(CC)CC(C)(C)C(=O)/C=C/c1ccc(C)cc1 | 11.5 µM (inactive) | 9.42 µM (inactive) | 10.7 µM (inactive) | 7.31 µM (inactive) | 7.96 µM (inactive) | 11.4 µM (inactive) | – | – | –
2 | Cc1ccccc1NC(=O)CC(=O)N1N=C(N2c3ccccc3Sc3ccccc32)CC1c1ccccc1 (stereo unspecified) | > 100 µM (inactive) | > 100 µM (inactive) | > 100 µM (inactive) | > 100 µM (inactive) | > 100 µM (inactive) | – | > 100 µM (inactive) | – | –
3 | CCOC(=O)C1=C(Nc2ccccc2)OC/C1=N\NC(=O)Cc1ccccc1 | > 50 µM (inactive) | > 50 µM (inactive) | > 50 µM (inactive) | > 50 µM (inactive) | > 50 µM (inactive) | > 50 µM (inactive) | – | – | –
4 | CSc1nc(NC(=O)O)c(N(C(C)=O)C(=O)O)c(=O)n1C | > 100 µM (inactive) | > 100 µM (inactive) | > 100 µM (inactive) | > 100 µM (inactive) | > 100 µM (inactive) | – | > 100 µM (inactive) | – | –
5 | Cc1cc(Cl)ccc1/N=C1/NC(=O)C(CC(=O)Nc2cccc(C)c2C)S1 (stereo unspecified) | 33.4 µM (inactive) | 26.4 µM (inactive) | 28.5 µM (inactive) | – | 10.7 µM (inactive) | – | 26.1 µM (inactive) | – | –
6 | CCC1=CCN(c2cc(C)ccn2)OC1c1ccc(OC)cc1 (stereo unspecified) | 30.2 µM (inactive) | 61.2 µM (inactive) | – | 28.6 µM (inactive) | – | – | – | – | –
7 | CCCCC1=CSC(c2ccccc2)=C(c2ccccc2)S1 | 82.6 µM (inactive) | > 100 µM (inactive) | > 100 µM (inactive) | 8.28 µM (inactive) | – | > 100 µM (inactive) | 26.7 µM (inactive) | – | –
8 | CC1C=CC(=O)C(n2cc(F)c(=O)[nH]c2=O)O1 (stereo unspecified) | 18.6 µM (inactive) | 19.7 µM (inactive) | 28.2 µM (inactive) | – | 15.1 µM (inactive) | 10.8 µM (inactive) | 21.4 µM (inactive) | – | –
9 | CCCCCCC/C=C1\CCC(CN(C)C)C1=O (stereo unspecified) | 7.1 µM (inactive) | 10.9 µM (inactive) | 16.4 µM (inactive) | 7.78 µM (inactive) | 20.5 µM (inactive) | 17.2 µM (inactive) | – | 14.7 µM (inactive) | 2.98 µM (inactive)
10 | Cc1ccc2c(c1)C1(OC(=O)c3ccccc31)c1ccc(F)cc1O2 (stereo unspecified) | 61.8 µM (inactive) | 83.9 µM (inactive) | – | 56.5 µM (inactive) | 82.8 µM (inactive) | > 100 µM (inactive) | – | – | –
11 | COC(=O)C1=C2CCC(=O)[C@@]2(C)C(OC(C)=O)C=CC1 (stereo partly specified) | 41.6 µM (inactive) | 20.5 µM (inactive) | 57 µM (inactive) | 36.8 µM (inactive) | 36.3 µM (inactive) | – | 36.6 µM (inactive) | – | –
12 | CCCCc1ccc(-n2c3nc(=O)n(C)c(=O)c-3nc3ccccc32)cc1 | – | 11.9 µM (inactive) | 16.3 µM (inactive) | 15.6 µM (inactive) | 18.2 µM (inactive) | 10.8 µM (inactive) | 10.3 µM (inactive) | – | –
13 | [O-][n+]1ccccc1S [PYRITHIONE ZINC] | 0.115 µM (active) | 0.968 µM (active) | 3.94 µM (inactive) | 0.327 µM (active) | 0.226 µM (active) | 3.78 µM (inactive) | 0.366 µM (active) | – | –
